# Marks after values point to notes of the source that are not given here.
# How the values were obtained:
# [1] = tested on: ICR mice; assay: in vivo; conditions: female ICR mice; single-dose ip
# Procedure, shortened: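 Female SPF ICR mice received a single ip dose in ethanol/Cremophor EL/saline (5:5:90), with dose lowered after deaths and raised otherwise. MTD defined as dose causing no death, no >10% weight loss versus Day 0 and no significant side effects; daily weights and twice-daily clinical observation over 7-14 days.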
# [2] = tested on: HCT-116 colon cancer xenografts; assay: Tumor growth inhibition of HCT-116 colon cancer xenografts in tumor-bearing nude mice (tumor volume, TGI %, RTV, T/C %); format: in vivo, Balb/c Nude mice; conditions: G10-G16 groups, single IP 400 mg/kg
# Procedure, shortened: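 Nude mice inoculated with HCT-116 cells (about 3×10^7 cells/mL in serum-free medium). Tumor diameter measured three times weekly and volume computed as V=3/4π(D/2)^3. Activity expressed as TGI (%) and T/C (%) from relative tumor volume Vt/V0, with V0 taken at grouping and dosing start; P<0.05 significant.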
# [3] = Procedure, shortened: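 Female SPF Balb/c nude mice bearing subcutaneous HCT-116 xenografts (3×10^6 cells, right hind limb), grouped at 60–150 mm^3, 6 per group; vehicle ethanol/Cremophor EL/saline 5:5:90. Body weight thrice weekly; tumours excised and weighed at sacrifice; Mean±SEM, unpaired t-test, P<0.05.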
# [4] = Day 1, G10-G16 groups, single IP 400 mg/kg, Mean±SEM
# [5] = Day 2, G10-G16 groups, single IP 400 mg/kg, Mean±SEM
# [6] = Day 4, G10-G16 groups, single IP 400 mg/kg, Mean±SEM
# [7] = Day 7, G10-G16 groups, single IP 400 mg/kg, Mean±SEM
# [8] = Day 9, G10-G16 groups, single IP 400 mg/kg, Mean±SEM
# [9] = Day 11, G10-G16 groups, single IP 400 mg/kg, Mean±SEM
# [10] = Day 14, G10-G16 groups, single IP 400 mg/kg, Mean±SEM
# [11] = Day 16, G10-G16 groups, single IP 400 mg/kg, Mean±SEM
# [12] = Day 18, G10-G16 groups, single IP 400 mg/kg, Mean±SEM
# [13] = Day 21, G10-G16 groups, single IP 400 mg/kg, Mean±SEM
# [14] = Day 23, G10-G16 groups, single IP 400 mg/kg, Mean±SEM
# [15] = Day 25, G10-G16 groups, single IP 400 mg/kg, Mean±SEM
# [16] = Day 28, G10-G16 groups, single IP 400 mg/kg, Mean±SEM
# [17] = Day 30, G10-G16 groups, single IP 400 mg/kg, Mean±SEM
smiles,measurement,setting,value
CCCCOC(=O)Nc1nc(=O)n(C2OC(COC(=O)COc3nc(Cl)c(Cl)cc3Cl)C(O)C2(F)F)cc1-c1cn(Cc2ccccc2)nn1 (centres unmarked) [Compound G15],"dose that could be tolerated (maximum tolerated dose, MTD)",[1],400 mg/kg
same,Day 0 (RTV),[2]; Day 0,1.00
same,"Tumor volume, Day 0","[2]; Day 0, Mean±SEM",80.27 ± 13.25 mm^3
same,Day 1 (TGI %),[2]; Day 1,35.29%
same,Day 1 (RTV),"[2]; Day 1, Mean±SEM",1.44 ± 0.12
same,"Tumor volume, Day 1","[2]; Day 1, Mean±SEM",116.82 ± 21* mm^3
same,Day 2 (TGI %),[2]; Day 2,44.25%
same,Day 2 (RTV),"[2]; Day 2, Mean±SEM",1.50 ± 0.15
same,"Tumor volume, Day 2","[2]; Day 2, Mean±SEM",123.70 ± 25.72* mm^3
same,Day 4 (TGI %),[2]; Day 4,67.87%
same,Day 4 (RTV),"[2]; Day 4, Mean±SEM",1.11 ± 0.17
same,"Tumor volume, Day 4","[2]; Day 4, Mean±SEM",95.41 ± 22.57** mm^3
same,Day 7 (TGI %),[2]; Day 7,86.92%
same,Day 7 (RTV),"[2]; Day 7, Mean±SEM",0.88 ± 0.12
same,"Tumor volume, Day 7","[2]; Day 7, Mean±SEM",56.58 ± 8.87** mm^3
same,Day 9 (TGI %),[2]; Day 9,91.92%
same,Day 9 (RTV),"[2]; Day 9, Mean±SEM",0.77 ± 0.23
same,"Tumor volume, Day 9","[2]; Day 9, Mean±SEM",47.71 ± 0.00** mm^3
same,Day 11 (TGI %),[2]; Day 11,92.19%
same,Day 11 (RTV),"[2]; Day 11, Mean±SEM",1.19 ± 0.19
same,"Tumor volume, Day 11","[2]; Day 11, Mean±SEM",76.28 ± 10.83** mm^3
same,Day 14 (TGI %),[2]; Day 14,86.10%
same,Day 14 (RTV),"[2]; Day 14, Mean±SEM",3.15 ± 0.61
same,"Tumor volume, Day 14","[2]; Day 14, Mean±SEM",200.24 ± 20.65** mm^3
same,Day 16 (TGI %),[2]; Day 16,77.07%
same,Day 16 (RTV),"[2]; Day 16, Mean±SEM",6.58 ± 1.42
same,"Tumor volume, Day 16","[2]; Day 16, Mean±SEM",415.31 ± 33.61** mm^3
same,Day 18 (TGI %),[2]; Day 18,71.73%
same,Day 18 (RTV),"[2]; Day 18, Mean±SEM",8.97 ± 2.01
same,"Tumor volume, Day 18","[2]; Day 18, Mean±SEM",564.86 ± 41.27** mm^3
same,Day 21 (TGI %),[2]; Day 21,60.58%
same,Day 21 (RTV),"[2]; Day 21, Mean±SEM",15.35 ± 3.61
same,"Tumor volume, Day 21","[2]; Day 21, Mean±SEM",963.72 ± 58.94 mm^3
same,Day 23 (TGI %),[2]; Day 23,59.19%
same,Day 23 (RTV),"[2]; Day 23, Mean±SEM",15.35 ± 3.61
same,"Tumor volume, Day 23","[2]; Day 23, Mean±SEM",963.72 ± 58.94 mm^3
same,Day 25 (TGI %),[2]; Day 25,57.93%
same,Day 25 (RTV),"[2]; Day 25, Mean±SEM",17.32 ± 4.11
same,"Tumor volume, Day 25","[2]; Day 25, Mean±SEM",1086.50 ± 63.85 mm^3
same,Day 28 (TGI %),[2]; Day 28,49.34%
same,Day 28 (RTV),"[2]; Day 28, Mean±SEM",21.75 ± 5.25
same,"Tumor volume, Day 28","[2]; Day 28, Mean±SEM",1362.50 ± 74.25 mm^3
same,Day 30 (TGI %),[2]; Day 30,37.03%
same,Day 30 (RTV),"[2]; Day 30, Mean±SEM",28.66 ± 8.38
same,"Tumor volume, Day 30","[2]; Day 30, Mean±SEM",1767.15 ± 0.00 mm^3
same,"Weight change rate, Day 0","[3]; Day 0, G10-G16 groups, single IP 400 mg/kg",0.00%
same,"Weight of mice, Day 0","[3]; Day 0, G10-G16 groups, single IP 400 mg/kg, Mean±SEM",20.15 ± 0.29 g
same,"Weight change rate, Day 1",[3]; [4],−1.20 ± 1.02%
same,"Weight of mice, Day 1",[3]; [4],19.92 ± 0.44 g
same,"Weight change rate, Day 2",[3]; [5],−11.24 ± 1.52 %
same,"Weight of mice, Day 2",[3]; [5],17.9 ± 0.52 g
same,"Weight change rate, Day 4",[3]; [6],−18.30 ± 3.09 %
same,"Weight of mice, Day 4",[3]; [6],16.48 ± 0.77 g
same,"Weight change rate, Day 7",[3]; [7],−1.96 ± 0.54%
same,"Weight of mice, Day 7",[3]; [7],20.10 ± 0.60 g
same,"Weight change rate, Day 9",[3]; [8],2.49 ± 2.01%
same,"Weight of mice, Day 9",[3]; [8],21.00 ± 0.10 g
same,"Weight change rate, Day 11",[3]; [9],4.46 ± 3.04%
same,"Weight of mice, Day 11",[3]; [9],21.40 ± 0.10 g
same,"Weight change rate, Day 14",[3]; [10],7.83 ± 1.17 %
same,"Weight of mice, Day 14",[3]; [10],22.1 ± 0.30 g
same,"Weight change rate, Day 16",[3]; [11],11.00 ± 1.00 %
same,"Weight of mice, Day 16",[3]; [11],22.75 ± 0.35 g
same,"Weight change rate, Day 18",[3]; [12],13.18 ± 0.32 %
same,"Weight of mice, Day 18",[3]; [12],23.20 ± 0.50 g
same,"Weight change rate, Day 21",[3]; [13],9.29 ± 0.71 %
same,"Weight of mice, Day 21",[3]; [13],22.40 ± 0.40 g
same,Day 22 Mortality,"[3]; Day 22, single IP dose (mg/kg)",67%
same,"Weight change rate, Day 23",[3]; [14],8.06 ± 0.44 %
same,"Weight of mice, Day 23",[3]; [14],22.15 ± 0.45 g
same,"Weight change rate, Day 25",[3]; [15],9.26 ± 0.26%
same,"Weight of mice, Day 25",[3]; [15],22.4 ± 0.60 g
same,"Weight change rate, Day 28",[3]; [16],7.08 ± 0.42%
same,"Weight of mice, Day 28",[3]; [16],21.95 ± 0.45 g
same,"Weight change rate, Day 30",[3]; [17],9.20 ± 2.70%
same,"Weight of mice, Day 30",[3]; [17],22.40 ± 1.10 g
same,clinical symptoms,"[3]; after single IP dose, compared with model control group",no significant differences in clinical symptoms

# — patent US10174067B2, “Type of cytidine derivative and application thereof” (priority 2014, dated 2019)
